The source of these data is the pKa sets of Baltruschat and Czodrowski (2020).

As a reminder, the pKa is the pH at which an ionisable group is half protonated. Higher therefore signals a group that holds its proton tightly. `CCC[Se](=O)O` came in with a pKa (acidic group) of 5.25.
Same read-out and setting: as for `CCCCCC/C=N/O`, the figure is 11.6.
With `CC(C)CN[C@H](c1ccccc1)[C@H](O)c1ccccc1`, the pKa (basic group) was found to be 11.3.
As to `O=S(=O)([O-])c1ccc(O)cc1`, the pKa (acidic group) is 8.91.
In turn, `c1c[nH]c(Cc2ncc[nH]2)n1` registered a pKa (basic group) of 7.27.
On the same count and under the same terms, as for `CN1CC(O[Si](C)(C)C)C1`, the figure is 9.1; as for `COc1nc(C)cc([O-])n1`, 8.4.
For `CCCCCCCCCC(=O)O`, under “acidic group”, the pKa was found to be 4.89.
As for `CNc1cnc2ccccc2n1`, the pKa (basic group) was 4.1.
`CCCCS`: the pKa (acidic group) turned out to be 10.8.
Turning to `SCCN(Cc1ccccc1)Cc1ccccc1`, the pKa (basic group) was found to be 7.62.
Turning to `Cc1cc(C)c(O)c(C(C)C)c1`, where the note is “acidic group”, the pKa is 11.2.
In turn, `CC1CN2CCC1CC2` (centres undefined) registered a pKa (basic group) of 11.3.
For `O=C([O-])[C@@H]1CCCN1`, under “basic group”, the pKa was 10.6.
`Cn1c(CCl)nc2c(O)ccc(O)c21`: the pKa is 8.4 (acidic group) and 4.03 (basic group).
For `Cc1ccc(O)c(Cc2cc([N+](=O)[O-])ccc2[O-])c1`, the pKa (acidic group) was 11.5.
For the compound `CCSC(=N)c1ccccc1`, under “basic group”, the pKa came out at 6.05.
In the case of `NC(Cc1ccccc1)c1nnn[n-]1` (centres undefined), under “basic group”, the pKa was found to be 8.18.
Still for that read-out and setting: as for `NC(C[NH3+])C[NH3+]`, the figure is 3.72.
`COc1ccc(C(=O)O)cc1C` returned a pKa (acidic group) of 4.35.
In turn, `CN(C)c1cccc(O)c1` returned a pKa (acidic group) of 9.85.
Compound `CC1CNCC[NH2+]1` (centres undefined) yielded a pKa (basic group) of 5.46.
Still for that read-out and setting: as for `CN1CCN(C(c2ccccc2)c2ccccc2)CC1`, the figure is 8.05.
Consider `Oc1c(Br)cc(Br)c2cccnc12`, for which the pKa amounted to 7.3 (acidic group) and 2.6 (basic group).
For `C=CCC(C)(CN(CC)CC)OC(=O)CC(C)C` (centres undefined), the pKa (basic group) came out at 8.1.
Compound `Nc1nc2cccc[n+]2o1` had a pKa (acidic group) of 7.18.
The same measure, in the same setting: as for `C[NH+](C)c1ccc(/C=C/c2cc[n+](O)cc2)cc1`, the figure is 1.05.
`Nc1ccnc2cc(Cl)ccc12` came in with a pKa (basic group) of 8.22.
As for `NS(=O)(=O)C(F)(F)Cl`, the pKa (acidic group) came to 6.5.
On the same count and under the same terms, to `O=C(O)C#COc1ccccc1` belongs 3.09.
For the setting “acidic group”, `[O-]c1ccccc1O` displayed a pKa of 11.6.
Still for that read-out and setting: to `C=CCC1(C2C=CCCC2)C(=O)NC(=S)NC1=O` (centres undefined) belongs 7.25.
`CC(C)(CN)C[NH3+]` yielded a pKa (basic group) of 7.99.
For the compound `CN1c2ccccc2Nc2ccc(O)cc21`, the pKa was determined as 10.1 (acidic group) and 1 (basic group).
Consider `Cc1cccc(N(C)C)c1`, for which, where the note is “basic group”, the pKa was 5.32.
Still for that read-out and setting: to `O=C([O-])c1c2cccc1COCCOCc1ncc([nH]1)COCCOC2` belongs 7.05.
The compound `CN(C)/C=N/c1ccc(Cl)cc1` yielded a pKa (basic group) of 8.46.
On the same count and under the same terms, as for `CNc1ccccc1`, the figure is 4.8; as for `C1CCCNCCCCCCNCC1`, 9.6.
`Cc1cc(Br)cc(Br)c1O`: the pKa (acidic group) is 7.6.
`Oc1cccc2[nH]ncc12` returned a pKa (basic group) of 8.65.
Still for that read-out and setting: to `C[NH+](C)CCNCC[NH3+]` belongs 4.36; to `O=C1CCC[C@H]2[C@H]3C[C@@H](CN12)[C@H]1CCCCN1C3`, 9.2.
In the case of `C[N+](C)(C)Cc1cccc(O)c1O`, the pKa (acidic group) was determined as 8.1.
Still for that read-out and setting: as for `CCCCC1(CC)C(=O)[N-]C(=S)NC1=O`, the figure is 12.1.
For the compound `Cc1ccc(N)cc1CN`, the pKa (basic group) was found to be 9.33.
On to `N[C@@H](Cc1nc(I)[n-]c1I)C(=O)[O-]`, for which the pKa (basic group) was 9.76.
Under “basic group”, `C1CCC(C2=NCCC2)CC1` gave a pKa of 6.05.
Same read-out and setting: to `CSc1ccnc2ccccc12` belongs 5.81; to `Cc1c[nH]c(C)n1`, 8.39; to `CN(C)Cc1cc(Br)ccc1[O-]`, 10.7.
Same read-out and setting: to `c1ccc(C2=NCCC2)cc1` belongs 7.2.
Still for that read-out and setting: as for `Clc1ccc(-c2ccc(Cl)cn2)nc1`, the figure is 3.96.
`CC(=O)CC(=S)Nc1ccccc1` displayed a pKa (acidic group) of 7.5.
`Cc1cnc2cccc([N+](=O)[O-])c2c1NCCC[NH+](C)C` registered a pKa (basic group) of 6.01.
Turning to `[NH3+][C@@H](CCC(=O)O)C(=O)[O-]`, the pKa (acidic group) stood at 4.46.
On to `Nc1cccnc1`, for which the pKa (basic group) stood at 6.08.
The same measure, in the same setting: as for `CCOc1cccc(N)c1`, the figure is 4.15.
Turning to `N#CC(C#N)=NNc1ccccc1C(=O)O`, the pKa by setting is: (acidic group) 6.7; (basic group) -0.96.
Turning to `CC1=NCCCC1`, the pKa (basic group) was 9.57.
Still for that read-out and setting: as for `CCCN(C)N`, the figure is 7.35; as for `CN(C)CCCCC(=O)Oc1ccc([N+](=O)[O-])cc1`, 9.9.
In turn, `Ic1ccc(-c2nnn[nH]2)cc1` had a pKa (acidic group) of 3.88.
Compound `N[C@H]1CCCC[C@@H]1O` returned a pKa (basic group) of 9.35.
The same measure, in the same setting: as for `CC1CCN(c2cc[nH+]cc2)CC1`, the figure is -0.56.
Take `CC(=O)c1cc(C(=O)c2ccccc2)n[nH]1`: where the note is “acidic group”, the pKa stood at 9.01.
Under “basic group”, `Cc1ccc(N)c(C)c1` returned a pKa of 4.75.
Regarding `CC(=O)NS(=O)(=O)c1ccc(N)cc1`, the pKa reads like this: (acidic group) 5.35; (basic group) 1.58.
`[NH3+]CCc1cccc(O)c1` yielded a pKa (acidic group) of 9.27.
